Laboratory results reported in ChEMBL document CHEMBL1201862, “PubChem BioAssay data set” (2004).
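Cells were grown in 96-well plates and exposed to each compound for 48 hours at five concentrations; endpoints were interpolated linearly between bracketing concentrations, or set to the highest concentration if not reached. GI50 marks 50% less growth.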 Active and inactive are the calls of the source. No stated cut-off is given here; in the data, active = GI50 up to about 1.1 µM and inactive = higher.

Assays:
Assay in all cases: DTP human tumour cell line panel, 48 h
NCI-H460 = test system: NCI-H460
LOX IMVI = test system: LOX IMVI
NCI-H522 = test system: NCI-H522
HCT-116 = test system: HCT-116
M19-MEL = test system: M19-MEL
UO-31 = test system: UO-31
HCC 2998 = test system: HCC 2998
IGROV-1 = test system: IGROV-1
HL-60 = test system: HL-60
SF-268 = test system: SF-268
HOP-92 = test system: HOP-92
SF-539 = test system: SF-539
KM12 = test system: KM12
DMS-114 = test system: DMS-114
K562 = test system: K562
SK-OV-3 = test system: SK-OV-3
SN12C = test system: SN12C
UACC-62 = test system: UACC-62
SK-MEL-5 = test system: SK-MEL-5
KM-20L2 = test system: KM-20L2
A549 = test system: A549
DMS-273 = test system: DMS-273
M14 = test system: M14
CCRF-CEM = test system: CCRF-CEM
SK-MEL-28 = test system: SK-MEL-28
SNB-19 = test system: SNB-19
LXFL 529 = test system: LXFL 529
COLO 205 = test system: COLO 205
OVCAR-3 = test system: OVCAR-3
SK-MEL-2 = test system: SK-MEL-2
NCI-H226 = test system: NCI-H226
OVCAR-4 = test system: OVCAR-4
RPMI-8226 = test system: RPMI-8226
SW-620 = test system: SW-620
HOP-62 = test system: HOP-62
OVCAR-5 = test system: OVCAR-5
OVCAR-8 = test system: OVCAR-8
Malme-3M = test system: Malme-3M
SNB-78 = test system: SNB-78
MOLT-4 = test system: MOLT-4
DLD-1 = test system: DLD-1
786-0 = test system: 786-0
ACHN = test system: ACHN
SR = test system: SR
U-251 = test system: U-251
HT-29 = test system: HT-29
RXF 393 = test system: RXF 393
TK-10 = test system: TK-10
HCT-15 = test system: HCT-15
EKVX = test system: EKVX
SF-295 = test system: SF-295
CAKI-1 = test system: CAKI-1
NCI-H23 = test system: NCI-H23
XF498 = test system: XF498
UACC-257 = test system: UACC-257
SNB-75 = test system: SNB-75
A498 = test system: A498

Measured: GI50

CC(C)=CCC/C(C)=C/Cc1c(O)c(C)cc2c1[nH]c1cc(O)ccc12
inactive: NCI-H460 > 25 µM | LOX IMVI > 25 µM | NCI-H522 > 25 µM | HCT-116 > 25 µM | M19-MEL > 25 µM | UO-31 > 25 µM | HCC 2998 > 25 µM | IGROV-1 > 25 µM | HL-60 > 25 µM | SF-268 > 25 µM | HOP-92 > 25 µM | SF-539 > 25 µM | KM12 > 25 µM | DMS-114 > 25 µM | K562 > 25 µM | SK-OV-3 > 25 µM | SN12C > 25 µM | UACC-62 > 25 µM | SK-MEL-5 > 25 µM | KM-20L2 > 25 µM | A549 > 25 µM | DMS-273 > 25 µM | M14 > 25 µM | CCRF-CEM > 25 µM | SK-MEL-28 > 25 µM | SNB-19 > 25 µM | LXFL 529 > 25 µM | COLO 205 > 25 µM | OVCAR-3 > 25 µM | SK-MEL-2 > 25 µM | NCI-H226 > 25 µM | OVCAR-4 > 25 µM | RPMI-8226 > 25 µM | SW-620 > 25 µM | HOP-62 > 25 µM | OVCAR-5 > 25 µM | OVCAR-8 > 25 µM | Malme-3M > 25 µM | SNB-78 > 25 µM | MOLT-4 > 25 µM | DLD-1 > 25 µM | 786-0 > 25 µM | ACHN > 25 µM | SR > 25 µM | U-251 > 25 µM | HT-29 > 25 µM | RXF 393 > 25 µM | TK-10 > 25 µM
> 25 µM: HCT-15

COc1cc(/C=C(\C#N)c2ccccc2)cc(OC)c1
inactive: NCI-H460 42.6 µM | LOX IMVI 22.1 µM | EKVX 77.1 µM | NCI-H522 32.4 µM | SF-295 21.9 µM | HCT-116 49.5 µM | M19-MEL 50 µM | UO-31 29.6 µM | HCC 2998 67.6 µM | IGROV-1 71 µM | HL-60 24.3 µM | SF-268 40.9 µM | SF-539 41.1 µM | KM12 34.8 µM | DMS-114 27.5 µM | K562 15.2 µM | SK-OV-3 48.2 µM | SN12C 74.6 µM | UACC-62 32.4 µM | SK-MEL-5 41.1 µM | KM-20L2 41.1 µM | A549 28.6 µM | CAKI-1 51.1 µM | M14 33.8 µM | CCRF-CEM 30.7 µM | SK-MEL-28 26.1 µM | SNB-19 > 100 µM | LXFL 529 43.4 µM | COLO 205 57.4 µM | OVCAR-3 > 100 µM | SK-MEL-2 73.6 µM | NCI-H226 25.8 µM | OVCAR-4 > 100 µM | RPMI-8226 35.6 µM | NCI-H23 20.3 µM | SW-620 38.9 µM | HOP-62 74.1 µM | XF498 48 µM | OVCAR-5 55.1 µM | OVCAR-8 > 10 µM | Malme-3M > 100 µM | SNB-78 82.4 µM | MOLT-4 16.4 µM | DLD-1 76.9 µM | 786-0 31.8 µM | ACHN 60.5 µM | UACC-257 8.59 µM | SR 36.1 µM | U-251 28.3 µM | HT-29 32.4 µM | TK-10 > 100 µM
24 µM: HCT-15

COc1ccc(/C=N/n2cnc3c(c2=O)S/C(=C2/SC(=S)N(c4ccc(C)cc4)C2=O)N3c2ccccc2)cc1
inactive: NCI-H460 68.7 µM | LOX IMVI > 100 µM | EKVX > 100 µM | NCI-H522 52.4 µM | SF-295 11.6 µM | HCT-116 56 µM | M19-MEL > 100 µM | UO-31 > 100 µM | HCC 2998 > 100 µM | IGROV-1 42.7 µM | HL-60 58.5 µM | SF-268 29.4 µM | HOP-92 25.8 µM | SF-539 30.5 µM | KM12 > 100 µM | DMS-114 74.5 µM | K562 > 10 µM | SK-OV-3 > 100 µM | SN12C > 100 µM | UACC-62 17.4 µM | KM-20L2 > 100 µM | A549 41.3 µM | DMS-273 38.9 µM | CAKI-1 > 10 µM | M14 19.5 µM | CCRF-CEM 43.6 µM | SK-MEL-28 > 100 µM | SNB-19 28.4 µM | LXFL 529 > 100 µM | COLO 205 > 100 µM | OVCAR-3 29.9 µM | SK-MEL-2 79.4 µM | NCI-H226 > 100 µM | OVCAR-4 17.7 µM | RPMI-8226 40.8 µM | SW-620 > 100 µM | HOP-62 22.8 µM | OVCAR-5 > 100 µM | OVCAR-8 70.5 µM | Malme-3M 19.7 µM | MOLT-4 > 10 µM | SNB-75 > 100 µM | ACHN 49.1 µM | SR 31.6 µM | HT-29 > 100 µM | RXF 393 17.3 µM | TK-10 > 100 µM
> 100 µM: HCT-15

CCc1nc2c([nH]1)C(=O)c1ccccc1C2=O
51.3 µM: HCT-15
inactive: NCI-H460 43 µM | EKVX 94.4 µM | NCI-H522 33.5 µM | SF-295 45.7 µM | HCT-116 27.2 µM | M19-MEL 15.3 µM | UO-31 80.9 µM | HCC 2998 31.8 µM | HL-60 25.6 µM | SF-268 70 µM | SF-539 48.9 µM | KM12 59.7 µM | DMS-114 21.2 µM | K562 55 µM | SK-OV-3 > 100 µM | SN12C 37.2 µM | UACC-62 29.9 µM | A549 52.8 µM | DMS-273 37.1 µM | CAKI-1 47.8 µM | M14 46.9 µM | CCRF-CEM 48.5 µM | SK-MEL-28 > 100 µM | A498 > 100 µM | SNB-19 46.2 µM | OVCAR-3 23 µM | SK-MEL-2 > 100 µM | NCI-H226 34 µM | OVCAR-4 58.7 µM | NCI-H23 29 µM | SW-620 43.4 µM | HOP-62 > 100 µM | XF498 15.9 µM | OVCAR-5 > 100 µM | OVCAR-8 57.9 µM | Malme-3M 24.8 µM | SNB-78 53.7 µM | MOLT-4 46.3 µM | SNB-75 > 100 µM | DLD-1 39.1 µM | 786-0 61.4 µM | ACHN 59.8 µM | UACC-257 26.5 µM | SR 38.5 µM | U-251 55.5 µM | HT-29 43.2 µM | RXF 393 > 100 µM | TK-10 > 100 µM
